System: not listed separately
Experiment: (§1) Oral bioavailability in human
Conditions: in vivo
In the case of COc1ccc2c3c1O[C@H]1[C@@H](O)C=C[C@H]4[C@@H](C2)N(C)CC[C@@]341 [CODEINE], the bioavailability is reported as 55%. For N[C@@H](Cc1ccc(N(CCCl)CCCl)cc1)C(=O)O, the bioavailability was 71%. In the case of C[C@@H]1O[C@@H](O[C@@H]2C=C3CC[C@@H]4[C@H](CC[C@]5(C)[C@@H](c6ccc(=O)oc6)CC[C@]45O)[C@@]3(C)CC2)[C@H](O)[C@H](O)[C@H]1O [PROSCILLARIDIN], the bioavailability is reported as 7%. Compound O=C(O)[C@H]1N=C(c2ccccc2)c2cc(Cl)ccc2NC1=O has a bioavailability of 91%. COc1ccc([C@H](CN(C)C)C2(O)CCCCC2)cc1 showed a bioavailability of 45%. Compound C[C@]12C=CC(=O)N[C@@H]1CC[C@@H]1[C@@H]2CC[C@]2(C)[C@@H](C(=O)Nc3cc(C(F)(F)F)ccc3C(F)(F)F)CC[C@@H]12 [DUTASTERIDE] has a bioavailability of 60%. In the case of CCN(C(C)=O)c1cccc(-c2ccnc3c(C#N)cnn23)c1 [ZALEPLON], the bioavailability is reported as 30%. C[C@H]1O[C@@H](O[C@H]2[C@@H](O)C[C@H](O[C@H]3[C@@H](O)C[C@H](O[C@H]4CC[C@@]5(C)[C@H](CC[C@@H]6[C@@H]5CC[C@]5(C)[C@@H](C7=CC(=O)OC7)CC[C@]65O)C4)O[C@@H]3C)O[C@@H]2C)C[C@H](O)[C@@H]1O [DIGITOXIN] gave a bioavailability of 88.5%. With CCCCCc1cc(O)c2c(c1)OC(C)(C)[C@@H]1CCC(C)=C[C@@H]21 [DRONABINOL] the bioavailability was 15%. For CN1CCN(C(=O)O[C@@H]2c3nccnc3C(=O)N2c2ccc(Cl)cn2)CC1, the bioavailability was 80%. CCN[C@@H](C)Cc1cccc(C(F)(F)F)c1 [DEXFENFLURAMINE] showed a bioavailability of 89%. For Oc1ccc2c3c1O[C@H]1[C@@H](O)CC[C@@]4(O)[C@@H](C2)N(CC2CCC2)CC[C@]314 [NALBUPHINE], the bioavailability was 11%. For CNC(=O)Oc1ccc2c(c1)[C@]1(C)CCN(C)[C@@H]1N2C [PHYSOSTIGMINE], the bioavailability was 6%. Compound CC[C@@H](CO)NC(=O)[C@@H]1C=C2c3cccc4c3c(cn4C)C[C@H]2N(C)C1 [METHYSERGIDE] has a bioavailability of 13%. Cc1ncc2n1-c1ccc(Cl)cc1C(c1ccccc1F)=NC2 [MIDAZOLAM] gave a bioavailability of 40.5%. C[C@H](NC(C)(C)C)C(=O)c1cccc(Cl)c1 gave a bioavailability of 70%.

Same assay, conditions: in vivo, F
For CCN1C[C@H](CCN2CCOCC2)C(c2ccccc2)(c2ccccc2)C1=O [(R)-DOXAPRAM], the bioavailability was 61%. N/N=c1/cc2c(n[nH]1)CCN(C(=O)c1ccccc1)C2 [ENDRALAZINE] gave a bioavailability of 75%. Compound Cc1cccc(Nc2ccncc2S(=O)(=O)NC(=O)NC(C)C)c1 [TORSEMIDE] has a bioavailability of 91%. For Cc1[nH]cnc1CN1CCc2c(c3ccccc3n2C)C1=O [ALOSETRON], the bioavailability was 55%. Work on C=CC[C@@H]1/C=C(\C)C[C@H](C)C[C@H](OC)[C@H]2O[C@@](O)(C(=O)C(=O)N3CCCC[C@H]3C(=O)O[C@H](/C(C)=C/[C@@H]3CC[C@@H](O)[C@H](OC)C3)[C@H](C)[C@@H](O)CC1=O)[C@H](C)C[C@@H]2OC [TACROLIMUS ANHYDROUS] yielded a bioavailability of 17%. Work on CC(C)[C@H](N)C(=O)OC[C@@H](CO)OCn1cnc2c(=O)nc(N)[nH]c21 [(R)-VALGANCICLOVIR] yielded a bioavailability of 59.4%. Compound CN(C)[C@@H]1C(O)=C(C(N)=O)C(=O)[C@@]2(O)C(O)=C3C(=O)c4c(O)cccc4[C@@](C)(O)[C@H]3C[C@@H]12 [TETRACYCLINE] has a bioavailability of 77%. With CNS(=O)(=O)CCc1ccc2[nH]cc(C3CCN(C)CC3)c2c1 the bioavailability was 67.5%. Work on CO[C@H]1/C=C/O[C@@]2(C)Oc3c(C)c(O)c4c(O)c(c(/C=N/N5CCN(C)CC5)c(O)c4c3C2=O)NC(=O)/C(C)=C\C=C\[C@H](C)[C@H](O)[C@@H](C)[C@@H](O)[C@@H](C)[C@H](OC(C)=O)[C@@H]1C [RIFAMPIN] yielded a bioavailability of 88.8%. In the case of CCCN(CCC)CCc1cccc2c1CC(=O)N2 [ROPINIROLE], the bioavailability is reported as 55%. With CN1Cc2c(N)cccc2[C@@H](c2ccccc2)C1 the bioavailability was 27%. Compound C=C1/C(=C\C=C2/CCC[C@]3(C)[C@@H](C(C)CCCC(C)(C)O)CC[C@@H]23)C[C@@H](O)C[C@@H]1O (single isomer, unassigned) [CALCITRIOL] has a bioavailability of 61%. Cc1cc2c(OC[C@@H](O)CNC(C)C)cccc2[nH]1 [(S)-MEPINDOLOL] showed a bioavailability of 82%. In the case of CCOC(=O)C1=C(C)NC(C)=C(C(=O)OC)[C@@H]1c1cccc(Cl)c1Cl [(S)-FELODIPINE], the bioavailability is reported as 15%. COc1cc(N[C@H](C)CCCN)c2ncccc2c1 gave a bioavailability of 96%. In the case of CCCc1nc(C)c2c(=O)[nH]c(-c3cc(S(=O)(=O)N4CCN(CC)CC4)ccc3OCC)nn12, the bioavailability is reported as 15%. In the case of Cc1cccc(OC[C@@H](O)CNC(C)C)c1 [(S)-TOLIPROLOL], the bioavailability is reported as 90%. Compound O=C(O)[C@H]1/C(=C/CO)O[C@@H]2CC(=O)N21 [CLAVULANIC ACID] has a bioavailability of 75%. For COc1ccnc(C[S+]([O-])c2nc3ccc(OC(F)F)cc3[nH]2)c1OC (stereo not drawn) [PANTOPRAZOLE], the bioavailability was 77%. Work on CNC(=C[N+](=O)[O-])NCCSCc1csc(CN(C)C)n1 [NIZATIDINE] yielded a bioavailability of 70%. In the case of COc1ccc2nc([S@@+]([O-])Cc3ncc(C)c(OC)c3C)[nH]c2c1 [ESOMEPRAZOLE], the bioavailability is reported as 90%. In the case of Nc1nc(NC2CC2)c2ncn([C@H]3C=C[C@@H](CO)C3)c2n1 (single isomer, unassigned) [ABACAVIR], the bioavailability is reported as 86%. Compound CCOc1nc2cccc(C(=O)O)c2n1Cc1ccc(-c2ccccc2-c2nnn[nH]2)cc1 has a bioavailability of 15%. In the case of O=C(c1ccc(OCCN2CCCCC2)cc1)c1c(-c2ccc(O)cc2)sc2cc(O)ccc12 [RALOXIFENE], the bioavailability is reported as 2%. In the case of Nc1nc(=O)[nH]cc1F [FLUCYTOSINE], the bioavailability is reported as 83.5%. With COc1ccc([C@@H]2Sc3ccccc3N(CCN(C)C)C(=O)[C@@H]2OC(C)=O)cc1 [DILTIAZEM] the bioavailability was 40%. CC(=O)Nc1ccc(O)cc1 [ACETAMINOPHEN] showed a bioavailability of 88%. Work on C[C@@H](CN1CCN(CCOCCO)CC1)CN1c2ccccc2Sc2ccccc21 yielded a bioavailability of 10%. Work on CC(C)NC[C@H](O)COc1ccc(OCCOCC2CC2)cc1 yielded a bioavailability of 100%. Compound CC(C)NC[C@H](O)c1ccc(NS(C)(=O)=O)cc1 has a bioavailability of 60%. For CCc1cccc2cc([C@@H](O)CNC(C)(C)C)oc12 [(S)-BUFURALOL], the bioavailability was 46%. CO/N=C1\CN(c2nc3c(cc2F)c(=O)c(C(=O)O)cn3C2CC2)C[C@@H]1CN gave a bioavailability of 71%. O[C@](CCN1CCCC1)(c1ccccc1)C1CCCCC1 [(S)-PROCYCLIDINE] showed a bioavailability of 75%. Compound COc1cc(N[C@@H](C)CCCN)c2ncccc2c1 has a bioavailability of 96%. CCOC(=O)C1=C(C)NC(C)=C(C(=O)OC)[C@@H]1c1cccc([N+](=O)[O-])c1 [(S)-NITRENDIPINE] showed a bioavailability of 16%. In the case of Nc1nc(N)c2nc(-c3ccccc3)c(N)nc2n1, the bioavailability is reported as 51%. With CN(Cc1cnc2nc(N)nc(N)c2n1)c1ccc(C(=O)N[C@@H](CCC(=O)O)C(=O)O)cc1 [METHOTREXATE] the bioavailability was 70%. CN(C)CCCN1c2ccccc2CCc2ccccc21 [IMIPRAMINE] showed a bioavailability of 42%. With COc1ccc(OC)c([C@@H](O)CNC(=O)CN)c1 [(R)-MIDODRINE] the bioavailability was 93%. In the case of Cc1cccc(C)c1OC[C@@H](C)N [(R)-MEXILETINE], the bioavailability is reported as 87%. For CC(=O)Oc1ccccc1C(=O)O [ASPIRIN], the bioavailability was 68%. With CC(C)(C)NC[C@H](O)COc1cccc2c1C[C@H](O)[C@H](O)C2 [S-NADOLOL] the bioavailability was 34%. With O=C1NC(=O)C(c2ccccc2)(c2ccccc2)N1 [PHENYTOIN] the bioavailability was 90%. O=C1C(O)=C([C@H]2CC[C@H](c3ccc(Cl)cc3)CC2)C(=O)c2ccccc21 [ATOVAQUONE] gave a bioavailability of 23%. Compound CCN(CC)CC(O)CNC(=O)c1c(OC)c2ccccc2n1-c1ccccc1 (stereo not drawn) [EPROXINDINE] has a bioavailability of 70%. In the case of CNCC[C@@H](Oc1ccccc1C)c1ccccc1 [ATOMOXETINE], the bioavailability is reported as 63%. CC(C)[C@H](N)C(=O)OC[C@H](CO)OCn1cnc2c(=O)nc(N)[nH]c21 [(S)-VALGANCICLOVIR] gave a bioavailability of 59.4%. For C[C@H](C(=O)O)c1ccc(C(=O)c2cccs2)cc1 [(S)-SUPROFEN], the bioavailability was 92%. In the case of C[C@@H](N/C(=N/c1ccncc1)NC#N)C(C)(C)C, the bioavailability is reported as 57%.

System: Homo sapiens
Experiment: as §1
Conditions: in vivo
O=C(NC[C@H]1CCCCN1)c1cc(OCC(F)(F)F)ccc1OCC(F)(F)F (stereo in doubt; 083) [(R)-FLECAINIDE] showed an F of 95%. C[C@H]1COc2c(N3CCN(C)CC3)c(F)cc3c(=O)c(C(=O)O)cn1c23.C[C@H]1COc2c(N3CCN(C)CC3)c(F)cc3c(=O)c(C(=O)O)cn1c23.O (stereo in doubt; 162) [LEVOFLOXACIN] showed an F of 97.5%. Compound O=C(NC[C@H]1CCCCN1)c1cc(OCC(F)(F)F)ccc1OCC(F)(F)F (stereo in doubt; 268) [(R)-FLECAINIDE] has an F of 70%.
